Tests used:
[1] = xn = mol fraction of the nth substance listed
[2] = refractive index (Na D-line) (dimensionless); xn = mol fraction of the nth substance listed; conditions: 100.5 kPa, Liquid, Standard Abbe refractometry

CCCCCC(=O)OCC [ethyl hexanoate] + CCO
Conditions	refractive index, 288.15 K	refractive index, 298.15 K	refractive index, 308.15 K	refractive index, 318.15 K	surface tension liquid-gas, 288.15 K [mN/m]	surface tension liquid-gas, 298.15 K [mN/m]	surface tension liquid-gas, 308.15 K [mN/m]	surface tension liquid-gas, 318.15 K [mN/m]
[1], x1 = 0.05	–	–	–	–	23.4	22.7	21.8	20.9
[1], x1 = 0.1	–	–	–	–	23.8	23	22.1	21.2
[1], x1 = 0.15	–	–	–	–	24.1	23.2	22.4	21.5
[1], x1 = 0.2	–	–	–	–	24.3	23.5	22.6	21.7
[1], x1 = 0.25	–	–	–	–	24.5	23.7	22.8	21.9
[1], x1 = 0.3	–	–	–	–	24.7	23.9	23	22
[1], x1 = 0.35	–	–	–	–	24.9	24	23.1	22.2
[1], x1 = 0.4	–	–	–	–	25.1	24.2	23.3	22.3
[1], x1 = 0.45	–	–	–	–	25.2	24.3	23.4	22.5
[1], x1 = 0.5	–	–	–	–	25.4	24.4	23.5	22.6
[1], x1 = 0.55	–	–	–	–	25.5	24.5	23.6	22.7
[1], x1 = 0.6	–	–	–	–	25.6	24.6	23.7	22.8
[1], x1 = 0.65	–	–	–	–	25.7	24.7	23.8	22.9
[1], x1 = 0.7	–	–	–	–	25.8	24.9	23.9	23
[1], x1 = 0.75	–	–	–	–	25.9	25	24	23.1
[1], x1 = 0.8	–	–	–	–	26	25.1	24.1	23.2
[1], x1 = 0.85	–	–	–	–	26.1	25.1	24.2	23.3
[1], x1 = 0.9	–	–	–	–	26.2	25.2	24.3	23.4
[1], x1 = 0.95	–	–	–	–	26.3	25.3	24.4	23.5
[1], x1 = 1	–	–	–	–	26.4	25.4	24.5	23.6
[2], x1 = 0.05	1.36942	1.36535	1.36109	1.35703	–	–	–	–
[2], x1 = 0.1	1.37451	1.37034	1.36602	1.36185	–	–	–	–
[2], x1 = 0.15	1.37883	1.37461	1.37024	1.36601	–	–	–	–
[2], x1 = 0.2	1.38253	1.37826	1.37388	1.3696	–	–	–	–
[2], x1 = 0.25	1.38577	1.38146	1.37706	1.37274	–	–	–	–
[2], x1 = 0.3	1.38864	1.38429	1.37986	1.3755	–	–	–	–
[2], x1 = 0.35	1.39119	1.38681	1.38236	1.37795	–	–	–	–
[2], x1 = 0.4	1.39347	1.38907	1.3846	1.38016	–	–	–	–
[2], x1 = 0.45	1.39553	1.39111	1.38663	1.38216	–	–	–	–
[2], x1 = 0.5	1.3974	1.39296	1.38847	1.38398	–	–	–	–
[2], x1 = 0.55	1.3991	1.39465	1.39016	1.38564	–	–	–	–
[2], x1 = 0.6	1.40066	1.3962	1.3917	1.38716	–	–	–	–
[2], x1 = 0.65	1.4021	1.39763	1.39312	1.38857	–	–	–	–
[2], x1 = 0.7	1.40343	1.39895	1.39444	1.38988	–	–	–	–
[2], x1 = 0.75	1.40466	1.40019	1.39568	1.39111	–	–	–	–
[2], x1 = 0.8	1.40579	1.40133	1.39682	1.39225	–	–	–	–
[2], x1 = 0.85	1.40684	1.40238	1.39787	1.3933	–	–	–	–
[2], x1 = 0.9	1.4078	1.40334	1.39882	1.39426	–	–	–	–
[2], x1 = 0.95	1.40868	1.40422	1.39972	1.39515	–	–	–	–
[2], x1 = 1	1.4095	1.40504	1.40055	1.39597	–	–	–	–

Reference: the NIST ThermoML archive (doi:10.1021/je0601208)
